US7214703B2, “Pyrrolidinohydrochinazolines” (Boehringer Ingelheim International GmbH, priority 2003, dated 2007)
Structures can show the parent of a compound that is named as a salt.

Tests used:
[1] = molecular target: T1, human chemokine receptor CCR3 (Homo sapiens, UniProt P51677); assay: CCR3 receptor binding assay (SPA, 125I-eotaxin-1, membranes of hCCR3 transfected K562 cells); conditions: CCR3-Receptor Binding Protocol, radioligand 125I-eotaxin-1; read-out: Affinity (Ki-value)
T1 construct: expressed in transfected cells; host or cells: K562 cells (membrane preparation)
T1 sequence (P51677 1-355): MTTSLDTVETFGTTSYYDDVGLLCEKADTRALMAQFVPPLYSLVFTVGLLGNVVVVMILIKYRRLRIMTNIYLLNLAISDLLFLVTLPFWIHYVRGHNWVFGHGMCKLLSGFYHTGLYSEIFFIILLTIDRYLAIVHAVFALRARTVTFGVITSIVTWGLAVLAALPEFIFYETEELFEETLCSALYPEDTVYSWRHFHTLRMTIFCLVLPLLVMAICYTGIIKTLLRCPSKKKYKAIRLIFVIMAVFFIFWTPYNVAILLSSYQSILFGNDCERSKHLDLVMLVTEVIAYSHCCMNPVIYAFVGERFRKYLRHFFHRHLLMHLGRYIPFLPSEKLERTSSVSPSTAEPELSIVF
Source text: Cell lines for expressing the receptor of interest include those naturally expressing the chemokine receptor, such as EOL-3 or THP-1, those induced to express the chemokine receptor by the addition of chemical or protein agents, such as HL-60 or AML14.3D10 cells treated with, for example, butyric acid with interleukin-5 present, or a cell engineered to express a recombinant chemokine receptor, such as CHO or HEK-293. Finally, blood or tissue cells, for example human peripheral blood eosinophils, isolated using methods as described by Hansel et al., J. Immunol. Methods, 145, 105–110 (1991), can be utilized in such assays. In particular, the compound of the present invention have activity in binding to the CCR-3 receptor in the aforementioned assays. […] Such a result is indicative of the intrinsic activity of the compounds as modulators of chemokine receptor activity. A general binding protocol is described below.
CCR3-Receptor Binding Protocol
The CCR3 receptor binding test is based on a K562 cell line (leukemia myelogenic blast cells ) transfected with the human chemokine receptor CCR3 (hCCR3-C1). The cell membranes were prepared by disrupting the hCCR3 transfected K562 cells by nitrogen […] and centrifugation at 40000 g, 4° C. for 1 h. The membranes were re-suspended in the SPA incubation buffer (see below) without bovine serum albumin for storage in aliquots at −80° C.
The CCR3 receptor binding assay with the radioligand ^125Jodine-eotaxin-1 was performed in a Scintillation Proximity Assay (SPA) design. Cell membranes of hCCR3 C1 cells were diluted in suitable concentrations (0.5–5 ug protein/well ) in 96 well microtiter plates (1450–401, Wallac).
The test incubation mixture comprising 60 μl of the membrane suspension, 80 μl of the Wheat Germ Agglutinin coated PVT beads (organic scintillator, Amersham Pharmacia biotech) in a concentration of 0.4 mg and 40 μl of radiolabelled ^125J rhEotaxin (Amersham, IM290) were incubated with 20 μl of the test compound (dissolved in DMSO dilutions ) for 2 hours. The SPA incubation buffer contained 25 mM HEPES, 25 mM MgCl2 6×H2O, 1 mM CaCl2 2×H2O and 0.1% bovine serum albumin. Included were controls for specific binding (no displacer added) and non-specific binding by adding unlabelled rhEotaxin (R&D Systems) or a test compound. Bound radioactivity was determined by scintillation counter (Micro Beta “Trilux”, Wallac). Determination of affinity of test compounds (dissociation constant Ki) was calculated by iterative fitting of experimental data using the law of mass action based program “easy sys” (Schittkowski, Num Math 68, 129–142 (1994)).

| Ki [1] [µM] | melting point [°C] | SMILES |
| --- | --- | --- |
| 0.1 to 1 | 209 | N=c1c2c(C3CC3)csc2nc2n1CC/C2=C\c1ccccc1Br [Example 305] |
| 0.001 to 0.1 | 190 to 191 | Clc1ccccc1C=C1CCN2Cc3ccccc3N=C12 [Example 103] |
| 0.001 to 0.1 | 183 to 184 | N=c1c2ccsc2nc2n1CCC2=Cc1ccccc1Br [Example 301, 7-(2-Bromobenzylidene)-6,7-dihydro-5H-1-thia-4a,8-diazo-s-indacen-4-ylideneamine] |
| 1 to 10 | 170 | C(=C1CCN2Cc3ccccc3N=C12)c1ccco1 [Example 115] |
| 0.001 to 0.1 | – | N=c1c2ccccc2nc2n1CC/C2=C\c1ccccc1I [Example 203] |
| 0.001 to 0.1 | – | N=c1c2ccccc2nc2n1CCC2=Cc1ccccc1Br [Example 201, 3-(2-Bromobenzylidene)-9-imino-2,3-dihydro-1H-pyrrolo[2,1-b]quinazoline] |
| – | 257 | CCc1ccccc1C=C1CCN2Cc3ccccc3N=C12 (as salt: HCl) [Example 110] |
| 1 to 10 | 175 to 177 | COc1ccc(C=C2CCn3c2nc2ccccc2c3=N)cc1 [Example 205] |
| – | > 300 | CN(C)c1ccc(/C=C2\CCN3Cc4ccccc4N=C23)c(Cl)c1 (as salt: HCl) [Example 107] |
| 0.1 to 1 | 192 to 194 | COc1cc2nc3n(c(=N)c2cc1OC)CC/C3=C\c1ccccc1Br [Example 206] |
| 0.1 to 1 | 180 | Cc1sc2nc3n(c(=N)c2c1C)CC/C3=C\c1ccccc1Br [Example 303] |
| 1 to 10 | – | FC(F)(F)Oc1ccccc1C=C1CCN2Cc3ccccc3N=C12 [Example 122] |
| 0.1 to 1 | 202 to 203 | Fc1ccc(C=C2CCN3Cc4ccccc4N=C23)c(Cl)c1 [Example 118] |
| 1 to 10 | – | Fc1ccccc1/C=C1\CCN2Cc3ccccc3N=C12 [Example 106] |
| 1 to 10 | – | CN(C)c1ccc(/C=C2\CCN3Cc4ccccc4N=C23)c(Cl)c1 [Example 107] |
| – | 109 to 110 | FC(F)(F)c1ccccc1/C=C1\CCN2Cc3ccccc3N=C12 (as salt: HCl) [Example 108] |
| 1 to 10 | 174 to 175 | COc1ccc(/C=C2\CCN3Cc4ccccc4N=C23)cc1C [Example 119] |
| 1 to 10 | 157 to 158 | CCOc1ccccc1/C=C1\CCN2Cc3ccccc3N=C12 [Example 113] |
| 1 to 10 | 242 to 248 | Clc1ccccc1C=C1CCCN2Cc3ccccc3N=C12 [Example 126, 6-(2-Chlorobenzylidene)-6,8,9,11-tetrahydro-7H-pyrido[2,1-b]quinazoline] |
| 0.1 to 1 | – | CCc1ccccc1/C=C1\CCn2c1nc1ccccc1c2=N [Example 204] |

| Ki [1] [µM] | melting point [°C] | SMILES |
| --- | --- | --- |
| 0.001 to 0.1 | 202 to 203 | N=c1c2ccccc2nc2n1CC/C2=C\c1ccccc1Cl [Example 202] |
| 1 to 10 | – | CCc1ccccc1C=C1CCN2Cc3ccccc3N=C12 [Example 110] |
| 1 to 10 | 252 to 255 | Brc1cccc2cccc(C=C3CCN4Cc5ccccc5N=C34)c12 [Example 124] |
| 0.1 to 1 | 200 | Clc1ccc(/C=C2\CCN3Cc4ccccc4N=C23)cc1Cl [Example 112] |
| 0.1 to 1 | 232 | N=c1c2cccnc2nc2n1CC/C2=C\c1ccccc1Br [Example 208] |
| 1 to 10 | 208 to 210 | C(=C1/CCN2Cc3ccccc3N=C12)/c1cccs1 [Example 114] |
| 1 to 10 | 208 to 209 | C(=C1/CCN2Cc3ccccc3N=C12)/c1ccsc1 [Example 116] |
| – | 225 | FC(F)(F)Oc1ccccc1C=C1CCN2Cc3ccccc3N=C12 (as salt: HCl) [Example 122] |
| – | 255 to 256 | C(=C1/CCN2Cc3ccccc3N=C12)/c1ccccc1-c1ccccc1 (as salt: HCl) [Example 117] |
| 1 to 10 | – | FC(F)(F)c1ccccc1/C=C1\CCN2Cc3ccccc3N=C12 [Example 108] |
| 1 to 10 | 187 to 188 | Clc1ccc(C=C2CCN3Cc4ccccc4N=C23)c(Cl)c1 [Example 120] |
| 1 to 10 | 205 | CN(C)c1ccc(/C=C2\CCN3Cc4ccccc4N=C23)cc1 [Example 111] |
| 0.1 to 1 | > 290 | Cc1oc2nc3n(c(=N)c2c1C)CC/C3=C\c1ccccc1Br [Example 306] |
| – | 224 to 225 | CCc1ccccc1C=C1CCN2Cc3ccccc3N=C12 (as salt: hydrochloride) [Example 127, 3-(2-Ethylbenzylidene)-1,2,3,9-tetrahydro-pyrrolo[2,1-b]quinazoline] |
| – | 285 | Fc1ccccc1/C=C1\CCN2Cc3ccccc3N=C12 (as salt: HCl) [Example 106] |
| 1 to 10 | – | C(=C1/CCN2Cc3ccccc3N=C12)/c1ccccc1-c1ccccc1 [Example 117] |
| 1 to 10 | 214 to 219 | Clc1ccccc1/C=C1\CCN2Cc3cc(Br)cc(Br)c3N=C12 [Example 102] |
| 0.001 to 0.1 | – | Brc1ccccc1C=C1CCN2Cc3ccccc3N=C12 [Example 101, 3-(2-Bromobenzylidene)-1,2,3,9-tetrahydro-pyrrolo[2,1-b]quinazoline] |
| 1 to 10 | 198 to 199 | Clc1cccc(Cl)c1C=C1CCN2Cc3ccccc3N=C12 [Example 105] |
